Measurements reported in ChEMBL document CHEMBL5385857, “Optimization and SAR research at the benzoxazole and tetrazole rings of JNJ4796 as new anti-influenza A virus agents, part 2” (Eur J Med Chem, 2023).

Tests used:
[1] = test system: Influenza A virus; assay: Antiviral activity against oseltamivir-resistant influenza A virus H1N1 clinical isolate IAV/Tianjin Jinnan/15/2009 infected in MDCK cells; assay type: functional, organism-based; settings: H1N1(IAV/Tianjin Jinnan/15/2009)
[2] = Selectivity index, ratio of CC50 for MDCK cells to IC50 for oseltamivir-resistant influenza A virus H1N1 clinical isolate IAV/Tianjin Jinnan/15/2009 infected in MDCK cells; assay type: toxicity, cell-based; settings: dog, read-out: Ratio CC50/IC50

SMILES	IC50 [1] [nM]	selectivity ratio [2]
CCC(CC)n1nnc([C@@H](c2ccc(F)cc2)N2CCN(C(=O)c3cc(-c4nc5cc(NC(C)=O)ccc5o4)ccn3)CC2)n1	220	> 454
CCCCn1nnc([C@H](c2ccc(F)cc2)N2CCN(C(=O)c3cc(-c4nc5cc(NC(C)=O)ccc5o4)ccn3)CC2)n1	4850	> 20
CC(=O)Nc1ccc2oc(-c3ccnc(C(=O)N4CCN([C@H](c5ccccc5)c5nnn(C(C)C)n5)CC4)c3)nc2c1	70	> 1430
CC(=O)Nc1ccc2oc(-c3ccnc(C(=O)N4CCN([C@@H](c5ccccc5)c5nnn(C(C)C)n5)CC4)c3)nc2c1	1510	> 66
C=Cn1nnc([C@H](c2ccc(F)cc2)N2CCN(C(=O)c3cc(-c4nc5cc(NC(C)=O)ccc5o4)ccn3)CC2)n1	6860	> 14.5
CC(=O)Nc1ccc2oc(-c3ccnc(C(=O)N4CCN([C@H](c5ccc(F)cc5)c5nnn(C6CCCC6)n5)CC4)c3)nc2c1	440	198
C=Cn1nnc([C@@H](c2ccc(F)cc2)N2CCN(C(=O)c3cc(-c4nc5cc(NC(C)=O)ccc5o4)ccn3)CC2)n1	90	> 196
CCC(CC)n1nnc([C@H](c2ccc(F)cc2)N2CCN(C(=O)c3cc(-c4nc5cc(NC(C)=O)ccc5o4)ccn3)CC2)n1	960	> 104
CC(=O)Nc1ccc2oc(-c3ccnc(C(=O)N4CCN([C@@H](c5ccc(F)cc5)c5nnn(CCC(C)C)n5)CC4)c3)nc2c1	11700	> 8
CC(=O)Nc1ccc2oc(-c3ccnc(C(=O)N4CCN([C@H](c5ccc(F)cc5)c5nnn(C(C)C)n5)CC4)c3)nc2c1	70	> 1430
CCCCn1nnc([C@@H](c2ccc(F)cc2)N2CCN(C(=O)c3cc(-c4nc5cc(NC(C)=O)ccc5o4)ccn3)CC2)n1	220	> 454
CC(=O)Nc1ccc2oc(-c3ccnc(C(=O)N4CCN([C@H](c5ccc(F)cc5)c5nnn(CCC(C)C)n5)CC4)c3)nc2c1	730	> 136
CC(=O)Nc1ccc2oc(-c3ccnc(C(=O)N4CCN([C@@H](c5ccc(F)cc5)c5nnn(C(C)C)n5)CC4)c3)nc2c1	2290	> 43
CC(=O)Nc1ccc2oc(-c3ccnc(C(=O)N4CCN([C@@H](c5ccc(F)cc5)c5nnn(C6CCCC6)n5)CC4)c3)nc2c1	2460	39
